Laboratory results reported in patent US8507505B2, “Dihydropyrazolopyrimidinone derivative” (MSD K.K., priority 2008, dated 2013).

What was measured:
Wee1 kinase = target: T1, Wee1 kinase (Homo sapiens, UniProt P30291); test: Wee1 kinase inhibitory effect (Pharmacological Test 1); type: biochemical; details: purified GST-tagged Wee1 kinase, Poly(Lys, Tyr) substrate, 10 μM ATP, 30° C. for 30 minutes; read-out: Weel Inhibition Activity (IC50)
T1 construct: made in house; host or cells: Sf9 insect cells (recombinant baculovirus)
Excerpt: The following describes exemplary pharmacological tests of a compound of the present invention._Pharmacological Test 1 (Wee1 kinase inhibitory effect)
A cDNA of Wee1 kinase with glutathione-S-transferase (GST) fused at the amino terminal thereof was inserted into a baculovirus expression vector to construct a recombinant baculovirus, with which cells of an insect cell line Sf9 were infected to overexpress the target protein. The infected cells were collected and lysed, and then the GST-tagged Wee1 kinase protein was adsorbed to a glutathione column and eluted from the column with glutathione, and the active fraction was desalted in a desalting column to give a purified enzyme.
In measurement of the Wee1 kinase activity, a synthetic peptide, Poly(Lys, Tyr) hydrobromide (Lys:Tyr (4:1)) purchased from Sigma was used as the substrate.
The amount of the reaction mixture was 21.1 μL; and the composition of the reaction buffer was 50 mM Tris-HCl buffer (pH 7.4)/10 mM magnesium chloride/1 mM dithiothreitol. The purified Wee1 kinase, 2.5 μg of the substrate peptide, 10 μM of non-labeled adenosine triphosphate (ATP) and 1 μCi of [γ-^33P]-labeled ATP (2500 Ci/mmol or more) were added to the reaction buffer, and the resulting mixture was incubated at 30° C. for 30 minutes. Thereafter, 10 μL of 350 mM phosphate buffer was added to the reaction system to stop the reaction. The substrate peptide was adsorbed on a P81 paper filter 96-well plate and the plate was washed several times with 130 mM phosphate buffer, and the radioactivity thereof was counted using a liquid scintillation counter. The [γ-^33P]-labeled ATP was purchased from Amersham Bioscience, Ltd.
The addition of a test compound to the reaction system was carried out by preparing a series of dilutions of the compound with dimethyl sulfoxide (DMSO) and adding 1.1 μL of each dilution to the reaction system. As a control, 1.1 μL of DMSO was added to the reaction system.

[1] = tested on: Cdc2 (Cdk1) tyrosine-15 phosphorylation in NCI-H1299 cells; test: Inhibitory effect on Cdc2 (Cdk1) tyrosine-15 phosphorylation in cells (Pharmacological Test 2, NCI-H1299 method); type: cell-based; details: Homo sapiens, 200 nM camptothecin 16 hours, then test compound with nocodazole 8 hours, ELISA ratio of tyrosine-15-phosphorylated Cdc2 to Cdc2, read-out: Cdc2-Tyrosine 15 Phosphorylation Inhibiting Effect
Excerpt: Pharmacological Test 2 (Method for determining drug effect using cells (inhibitory effect on Cdc2 (Cdk1) tyrosine-15 phosphorylation))
Fetal bovine serum (FBS) was purchased from Morgate, Inc.; an RPMI-1640 medium and a DMEM medium were purchased from Invitrogen, Inc.; camptothecin was purchased from Sigma Co.; gemcitabine was purchased from Eli Lilly Japan K.K.; nocodazole and protease inhibitor cocktail were purchased from Sigma Co.; a rabbit anti-Cdc2 antibody and a mouse anti-Cdc2 antibody were purchased from Santa Cruz Biotechnology, Inc.; a rabbit anti-tyrosine-15-phosphorylated Cdc2 antibody and a horseradish peroxidase-labeled anti-mouse IgG antibody were purchased from Cell Signaling Technology, Inc.; and Sure Blue Reserve TMB peroxidase substrate was purchased from Kirkegaard & Perry Laboratories, Inc.
A human non-small cell lung cancer cell line (NCI-H1299) and a human colon cancer cell line (WiDr) can be obtained from American Type Culture Collection (ATCC).
In the method using NCI-H1299 cells, the cells were suspended in an RPMI-1640 medium supplemented with 10% FBS, and 100 μL of the resulting cell suspension was dispensed in a Nunclon Delta treated 96-well plastic plate purchased from Nunc, Inc. at a density of 2000 cells per well, and the plate was incubated overnight at 37° C. under an atmosphere of 5% CO2 and 95% air. Camptothecin was dissolved in dimethyl sulfoxide (DMSO) and further the resulting solution was diluted with an RPMI-1640 medium supplemented with 10% FBS. Then, 50 μL of the diluted solution was added to each well of the plate in which the cells were seeded in advance such that the final concentration of camptothecin was 200 nM, and the plate was incubated at 37° C. under an atmosphere of 5% CO2 and 95% air for 16 hours. A test compound was serially diluted with DMSO, and further diluted with an RPMI-1640 medium supplemented with 10% FBS containing 4000 nM nocodazole. Then, 50 μL of the test compound solution was added to each well of the plate in which the cells treated with camptothecin were seeded, and the plate was incubated at 37° C. under an atmosphere of 5% CO2 and 95% air for 8 hours. Then, the culture medium was removed from each well and […] of a cell lysis buffer was added to each well, and the plate was shaken at 4° C. for 2 hours, and thereafter the liquid in the plate was frozen at −80° C. and then thawed, which was used as a lysed cell solution. Cdc2 and tyrosine-15-phosphorylated Cdc2 in this lysed cell solution were measured by an enzyme-linked immunosorbent assay (ELISA method), and a ratio of tyrosine-15-phosphorylated Cdc2 to Cdc2 was calculated to determine a 50% effective concentration (EC50, nM) of the test compound for inhibition of phosphorylation in cells. The cell lysis buffer as used herein is an aqueous solution […] containing 20 mM HEPES (pH 7.5), 150 mM sodium chloride, 1 mM disodium ethylenediamine tetraacetate, 0.1% polyoxyethylene (10) octylphenyl ether, 1% protease inhibitor cocktail, 1 mM dithiothreitol, 2 mM sodium orthovanadate, 10 mM sodium fluoride and 10 mM glycerol diphosphate. The measurement of Cdc2 by the ELISA method was carried out as follows. 50 μL of a solution of a rabbit anti-Cdc2 antibody obtained by diluting the antibody to 200 times with 50 mM carbonate-bicarbonate buffer (pH 9.6) was dispensed into each well of a 96-well Maxisorb immunoplate purchased from Nunc, Inc., and the immunoplate was let stand overnight at 4° C. to immobilize the antibody thereto. Subsequently, each well was washed three times with phosphate buffered saline (PBS), and 300 μL of PBS containing 5% bovine serum albumin (5% BSA/PBS) was added to each well, and then, the immunoplate was let stand at room temperature for 2 hours. […]

T1 sequence (P30291 whole entry): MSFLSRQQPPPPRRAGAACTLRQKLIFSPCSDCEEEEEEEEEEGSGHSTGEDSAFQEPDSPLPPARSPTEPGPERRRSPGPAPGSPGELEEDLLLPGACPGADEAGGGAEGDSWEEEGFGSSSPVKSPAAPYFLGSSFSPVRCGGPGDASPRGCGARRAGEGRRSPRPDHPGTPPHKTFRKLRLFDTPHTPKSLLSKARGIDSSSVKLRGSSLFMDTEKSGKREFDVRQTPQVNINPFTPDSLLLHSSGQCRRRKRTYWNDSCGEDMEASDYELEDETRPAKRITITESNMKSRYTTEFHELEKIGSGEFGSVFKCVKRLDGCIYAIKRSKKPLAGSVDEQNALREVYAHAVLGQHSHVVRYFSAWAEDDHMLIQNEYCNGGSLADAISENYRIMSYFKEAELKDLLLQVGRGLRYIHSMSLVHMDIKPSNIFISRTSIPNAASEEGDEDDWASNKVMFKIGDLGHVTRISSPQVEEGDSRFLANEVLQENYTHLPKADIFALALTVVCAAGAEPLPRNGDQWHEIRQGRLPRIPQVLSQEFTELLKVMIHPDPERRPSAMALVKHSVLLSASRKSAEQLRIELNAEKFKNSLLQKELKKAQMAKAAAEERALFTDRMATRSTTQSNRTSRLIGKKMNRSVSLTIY

SMILES	IC50 (Wee1 kinase)	EC50 [1]
Cn1c(=O)n(-c2c(Cl)cccc2Cl)c(=N)c2cnc(Nc3ccc(N4CCN(CCO)CC4)cc3)nc21 [Example 1, 3-(2,6-Dichlorophenyl)-7-({4-[4-(2-hydroxyethyl)piperazin-1-yl]phenyl}amino)-4-imino-1-methyl-3,4-dihydropyrimido[4,5-d]pyrimidin-2(1H)-one]	4 nM	71 nM
Cn1c(=O)n(-c2c(Cl)cccc2Cl)c(=N)c2cnc(Nc3ccc(N4CCOC(CO)C4)cc3)nc21 (stereo not shown) [Example 2, 3-(2,6-Dichlorophenyl)-7-({4-[2-(hydroxymethyl)morpholin-4-yl]phenyl}amino)-4-imino-1-methyl-3,4-dihydropyrimido[4,5-d]pyrimidin-2(1H)-one]	2 nM	86 nM
CN(C)CC(=O)N1CCN(c2ccc(Nc3ncc4c(=N)n(-c5c(Cl)cccc5Cl)c(=O)n(C)c4n3)cc2)CC1 [Example 3, 3-(2,6-Dichlorophenyl)-7-[(4-{4-[(dimethylamino)acetyl]piperazin-1-yl}phenyl)amino]-4-imino-1-methyl-3,4-dihydropyrimido[4,5-d]pyrimidin-2(1H)-one]	12 nM	45 nM
CN(C)CC1CN(c2ccc(Nc3ncc4c(=N)n(-c5c(Cl)cccc5Cl)c(=O)n(C)c4n3)cc2)CCO1 (stereo not shown) [Example 4, 3-(2,6-Dichlorophenyl)-7-[(4-{2-[(dimethylamino)methyl]morpholin-4-yl}phenyl)amino]-4-imino-1-methyl-3,4-dihydropyrimido[4,5-d]pyrimidin-2(1H)-one]	10 nM	34 nM
CN1CCN(c2ccc(Nc3ncc4c(=N)n(-c5c(Cl)cccc5Cl)c(=O)[nH]c4n3)cc2)CC1 [Example 5, 3-(2,6-Dichlorophenyl)-4-imino-7-{[4-(4-methylpiperazin-1-yl)phenyl]amino}-3,4-dihydropyrimido[4,5-d]pyrimidin-2(1H)-one]	17 nM	66 nM
Cc1cc(Nc2ncc3c(=N)n(-c4c(Cl)cccc4Cl)c(=O)[nH]c3n2)ccc1N1CCN(C)CC1 [Example 6, 3-(2,6-Dichlorophenyl)-4-imino-7-{[3-methyl-4-(4-methylpiperazin-1-yl)phenyl]amino}-3,4-dihydropyrimido[4,5-d]pyrimidin-2(1H)-one]	8 nM	25 nM

Continued, values first:

IC50 (Wee1 kinase)	EC50 [1]	SMILES
6 nM	–	CN1CCN(c2ccc(Nc3ncc4c(=N)n(-c5c(Cl)cccc5Cl)c(=O)n(C)c4n3)cc2)CC1 [Example 7, 3-(2,6-Dichlorophenyl)-4-imino-1-methyl-7-{[4-(4-methylpiperazin-1-yl)phenyl]amino}-3,4-dihydropyrimido[4,5-d]pyrimidin-2(1H)-one]
17 nM	75 nM	CN(C)[C@@H]1CCN(c2ccc(Nc3ncc4c(=N)n(-c5c(Cl)cccc5Cl)c(=O)[nH]c4n3)cc2)C1 [Example 8, 3-(2,6-Dichlorophenyl)-7-({4-[(3R)-3-dimethylaminopyrrolidin-1-yl]phenyl}amino)-4-imino-3,4-dihydropyrimido[4,5-d]pyrimidin-2(1H)-one]
16 nM	110 nM	CN1CC2CCN(c3ccc(Nc4ncc5c(=N)n(-c6c(Cl)cccc6Cl)c(=O)[nH]c5n4)cc3)C2C1 (stereo not shown) [Example 9, 3-(2,6-Dichlorophenyl)-4-imino-7-{[4-(5-methylhexahydropyrrolo[3,4-b]pyrrol-1(2H)-yl)phenyl}amino)-3,4-dihydropyrimido[4,5-d]pyrimidin-2(1H)-one]
18 nM	110 nM	CN1CCC2(CCCN(c3ccc(Nc4ncc5c(=N)n(-c6c(Cl)cccc6Cl)c(=O)[nH]c5n4)cc3)C2)C1 (stereo not shown) [Example 10, 3-(2,6-Dichlorophenyl)-4-imino-7-{[4-(2-methyl-2,7-diazaspiro[4,5]dec-7-yl)phenyl}amino)-3,4-dihydropyrimido[4,5-d]pyrimidin-2(1H)-one]
